Source: patent US11054422B2, “Circulating astrocytes and MFSD2A as biomarkers” (priority 2017, dated 2021)

How the values were obtained:
BBB = test: Blood cell biomarkers, serum markers and BBB extravasation in mice treated with nicotine, METH and gp120; conditions: for Evans blue and albumin extravasation into the brain / blood levels of CD133+/CD146+ endothelial PCs (EPCs) / blood levels of circulating Astrocytes (cAstr) / blood levels of circulating BMECs (cBMECs), CD146+/S100B+: treated mice
Procedure: Nicotine tartrate (NT) and methamphetamine (METH) were purchased from Sigma-Aldrich (St. Louis, Mo.). Dynabeads® M-450 Tosylactivated was obtained from Invitrogen (Carlsbad, Calif.) and utilized for magnetic bead extraction. Ulexeuropaeus 1 (UEA I) lectin and mounting medium with 4′,6-diamidino-2-phenylindole (DAPI) were purchased from Vector (Buringame, Calif.). HIV-1 gp120 was purchased from Immunodiagnostics (Woburn, Mass.). Serum levels of molecular markers were determined by ELISA using antibodies and antigens from Creative Biomart (New York, N.Y.) (S100B) and ProteinTech (Chicago, Ill.) (ubiquitin C-terminal hydrolase 1, UCHL1). The Mfsd 2a antibody was purchased from Santa Cruz Biotechnology, Inc. (Dallas, TEXAS). All primary antibodies (Ab) were purchased from the commercial sources: a rabbit anti-α7 nAChR Ab from Genescript (Piscataway, N.J.); a rat anti-mouse Ly-6G (Gr-I) Ab; a mouse anti-CD44 Ab (sc-7297), a rabbit anti-actin (sc-7210), and a rabbit anti-GLUT1 Ab from Santa Cruz Biotechnology (Santa Cruz, Calif.); a rat anti-mouse Ly-6G (Gr-I) Ab FITC-conjugated and an anti-mouse CD146 Ab FITC-conjugated from eBiosciences (San Diego, Calif.), a rabbit anti-SIOOB Ab rhodamine-conjugated from BD Biosciences, and a rabbit anti-CD133 Ab rhodamine-conjugated from Abbiotec (San Diego, Calif.). Transwell filters (3 μm pore size, 6.5 mm diameter), blood plates and CBA assay kit were purchased from BD Biosciences (San Jose, Calif.). Chemicals were purchased from Sigma-Aldrich (St. Louis, Mo.) unless otherwise noted.
Mouse cBMECs were isolated with UIexeuropaeus 1 (UEA 1) lectin-coated Dynabeads as known by one of ordinary skill in the art. The beads were prepared according to the manufacturer's instructions (Invitrogen) and re-suspended in Hanks' balanced salt solution (HBSS. Invitrogen Corp., Carlsbad, Calif., USA) plus 5% fetal calf serum (HBSS+5% FCS) to a final concentration of 4×10^8 beads/mi. Mouse cBMECs in whole blood were affinity captured at 4TC with UEA UEA-1 coated Dynabeads. To eliminate non-specific cell binding to the beads, the cell suspensions were flushed through the pipette tip during the washing steps and then suspended in PBS by using a magnetic particle concentrator (MPC). The bound cells were incubated with 0.5M fucose for 10 min at room temperature to release the beads from target cells. The beads were then washed 5 times with HBSS+5% FBS and collected with the MPC. Then the suspensions were collected and centrifuged. The pellet was collected and affinity captured at 4-C with Msd2a-precoated Dynabeads. After blocking and washing, the cells conjugated to the beads were fixed with 2% paraformaldehyde and 0.25% glutaradehyde for 30 minutes. Then the FITC-conjugated CD146 antibody (BMECs specific marker, used for cBMEC identification) was added and incubated with the beads-bound cells overnight (dark). At last, DAPI was added and incubated with the beads-bound cells for 30 min. The cells (10 ul) were transferred to the cell counter, and counted under a florescence microscope.
Mouse astrocytes were isolated with Concanavalin A (ConA)-coated magnetic beads as known by one of ordinary skill in the art. Dynabeads™ beads were prepared according to the manufacturer's instructions (Invitrogen) and re-suspended in Hanks' balanced salt solution (HBSS, Invitrogen Corp., Carlsbad, Calif., USA) plus 5% fetal calf serum (HBSS+5% FCS) to a final concentration of 4×10^8 beads/ml. Mouse astrocytes in whole blood were affinity captured at 4° C. with ConA coated Dynabeads™. To eliminate non-specific cell binding to the beads, the cell suspensions were flushed through the pipette tip during the washing steps and then suspended in PBS by using a magnetic particle concentrator (MPC). The bound cells were incubated with 0.5M fucose for 10 min at room temperature to release the beads from target cells. The beads were then washed 5 times with HBSS+5% FBS and collected with the MPC. Then the suspensions were collected and centrifuged. […]

cAstr and cBMECs = test: cAstr and cBMEC density in peripheral blood of mice treated with gp120 and METH; format: in vivo, mouse; conditions: vs controls without treatment (CON)
Text: (§1) Then the suspensions were collected and centrifuged.

α7 nAChR = target: T1, α7 nAChR (Mus musculus, UniProt P49582); test: Memantine effect on E. coli K1 (E44)-induced cAstr/cBMEC shedding in neonatal mice; format: in vivo; conditions: neonatal (10 day-old) mice intraperitoneally injected with E44 and treated with MEM, P<0.001
T1 construct: endogenous in cells; host or cells: live neonatal (10 day-old) mice, in vivo; C57BL/6J is the strain stated for the animal experiments in general
T1 sequence (P49582 23-502): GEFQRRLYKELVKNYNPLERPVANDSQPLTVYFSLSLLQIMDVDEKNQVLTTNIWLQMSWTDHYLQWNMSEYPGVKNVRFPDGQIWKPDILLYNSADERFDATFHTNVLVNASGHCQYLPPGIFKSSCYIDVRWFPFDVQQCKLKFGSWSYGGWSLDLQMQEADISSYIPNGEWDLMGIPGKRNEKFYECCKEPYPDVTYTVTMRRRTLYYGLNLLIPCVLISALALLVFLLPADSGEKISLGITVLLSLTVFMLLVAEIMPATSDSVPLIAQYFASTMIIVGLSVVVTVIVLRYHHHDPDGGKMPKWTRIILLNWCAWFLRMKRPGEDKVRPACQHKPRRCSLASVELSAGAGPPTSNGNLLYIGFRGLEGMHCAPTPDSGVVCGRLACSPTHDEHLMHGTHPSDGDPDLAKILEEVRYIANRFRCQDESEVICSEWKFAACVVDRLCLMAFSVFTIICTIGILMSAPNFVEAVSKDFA
Text: as §1
As α7 nAChR plays an important role in CNS Inflammation induced by microbial and non-microbial factors, we have proposed that turnover and shedding of astrocytes and BMECs could be regulated by α7 nAChR. To test this hypothesis, the correlation of α7 nAChR with cAstr/cBMEC shedding and CNS inflammation induced by meningitic E. coli K1 (E44) was examined an α7 nAChR antagonist memantine (MEM) described in the experimental methods herein. In this study, neonatal (10 day-old) mice were intraperitoneally injected with E44 and treated with MEM.

CN1CCCC1c1cccnc1.O=C(O)C(O)C(O)C(=O)O (stereo not shown) [nicotine, Nicotine tartrate]
serum levels of S100B (BBB; mice, ELISA): significantly increase | serum levels of ubiquitin C-terminal hydrolase 1 (BBB; mice, ELISA): significantly increase | Evans blue and albumin extravasation into the brain (BBB): enhanced | blood levels of CD133+/CD146+ endothelial PCs (EPCs) (BBB): increased blood levels | blood levels of circulating Astrocytes (cAstr) (BBB): increased blood levels | blood levels of circulating BMECs (cBMECs), CD146+/S100B+ (BBB): increased blood levels

CN[C@@H](C)Cc1ccccc1 [METH, methamphetamine]
Astr (cAstr) shedding (cAstr and cBMECs; FIG. 6A): significantly induce | cBMEC shedding (cAstr and cBMECs; FIG. 6B): significantly induce | Evans blue and albumin extravasation into the brain (BBB): enhanced | blood levels of CD133+/CD146+ endothelial PCs (EPCs) (BBB): increased blood levels | blood levels of circulating Astrocytes (cAstr) (BBB): increased blood levels | blood levels of circulating BMECs (cBMECs), CD146+/S100B+ (BBB): increased blood levels

CC12CC3CC(C)(C1)CC(N)(C3)C2 [MEM, memantine]
shedding of cAstr (blood level) (α7 nAChR): significantly block | shedding of cBMECs (blood level) (α7 nAChR): significantly block | shedding of cAstr (blood level) (α7 nAChR; listed as memantine): reduce | shedding of cBMECs (blood level) (α7 nAChR; listed as memantine): reduce
